# Measured values as given in patent publication US20230136600A1, “Method and device for screening antigen epitope polypeptide” (priority 2020, published 2023).
# Columns and labels:
# Balb/c mice = experiment: Polypeptide chip-based vaccine immunogenicity scoring system; format: in vivo; design: key to A2: whether the 95 percentile of the last sampling is increased compared with the end point: Y = rise; N = no rise; conditions: for A: 95 percentile grouping number score / B: Mouse performance score: total score = 5; for C1: #A timing-sequence response peptide fragment set / C2: #B vaccine specificity peptide fragment set / C3: Intersection of A and B / C4: Percentage of the intersection in set B / C: Timing-sequence response and specificity score: value of the whole mix
# [1] = system: novel coronavirus (live coronavirus), vero cells; experiment: In-vitro live virus neutralization experiment with serum of immunized mice (CPE method); format: in vivo, SARS-CoV-2; conditions: Embodiment I: single peptide 100 μg + MF59 at Day 0, 14, 28, Balb/c mice, serum Day 35
# [2] = Embodiment III, polypeptide-KLH
# [3] = Embodiment III, polypeptide-KLH, Mix1-10
# [4] = Embodiment III, polypeptide-KLH, A*3 + B*2 + C*1
# [5] = adjuvant AddaVax, 7 peptides co-immunized in mice
# [6] = adjuvant Adju-Phos, 7 peptides co-immunized in mice
# [7] = adjuvant Alhydrogel, 7 peptides co-immunized in mice
# [8] = adjuvant Imjet Alumn, 7 peptides co-immunized in mice
# [9] = adjuvant MA103A, 7 peptides co-immunized in mice
# [10] = adjuvant MA103B, 7 peptides co-immunized in mice
sequence,measurement,setting,value
YGANKDGI (SARS-CoV-2) [SEQ ID NO:21],B1: D 0-D 14 95 percentile rise in the number of mice,Balb/c mice; [2],3
same,B2: D 0-D 21 95 percentile rise in the number of mice,Balb/c mice; [2],3
same,B3: D 14-D 21 95 percentile rise in the number of mice,Balb/c mice; [2],1
same,B4: D 21-D 28 95 percentile rise in the number of mice,Balb/c mice; [2],1
same,A1: difference between a highest median and a D 0 median (95 percentile),Balb/c mice; [3],0.08
same,A2: whether the 95 percentile of the last sampling is increased compared with the end point,Balb/c mice; [3],Y
same,Total single peptide,Balb/c mice; [4],14.8
same,A: 95 percentile grouping number score,Balb/c mice; [2],3.5
same,B: Mouse performance score,Balb/c mice; [2],1.9
same,C1: #A timing-sequence response peptide fragment set,Balb/c mice; [2],230
same,C2: #B vaccine specificity peptide fragment set,Balb/c mice; [2],251
same,C3: Intersection of A and B,Balb/c mice; [2],1
same,C4: Percentage of the intersection in set B,Balb/c mice; [2],0.398
same,C: Timing-sequence response and specificity score,Balb/c mice; [2],0.5
same,1) 95 percentile grouping number A,Balb/c mice; [5],3.5
same,1) 95 percentile grouping number A1,Balb/c mice; [5],0.055
same,2) Mouse performance B,Balb/c mice; [5],2.6
same,2) Mouse performance B1,Balb/c mice; [5],0
same,2) Mouse performance B2,Balb/c mice; [5],3
same,2) Mouse performance B3,Balb/c mice; [5],5
same,3) Timing-sequence response and specificity C,Balb/c mice; [5],0
same,3) Timing-sequence response and specificity C1,Balb/c mice; [5],237
same,3) Timing-sequence response and specificity C2,Balb/c mice; [5],1244
same,3) Timing-sequence response and specificity C3,Balb/c mice; [5],0
same,3) Timing-sequence response and specificity C4,Balb/c mice; [5],0.000
same,Total single peptide,Balb/c mice; [5],15.7
same,1) 95 percentile grouping number A,Balb/c mice; [6],4
same,1) 95 percentile grouping number A1,Balb/c mice; [6],0.05
same,2) Mouse performance B,Balb/c mice; [6],2.9
same,2) Mouse performance B1,Balb/c mice; [6],3
same,2) Mouse performance B2,Balb/c mice; [6],4
same,2) Mouse performance B3,Balb/c mice; [6],3
same,3) Timing-sequence response and specificity C,Balb/c mice; [6],0
same,3) Timing-sequence response and specificity C1,Balb/c mice; [6],203
same,3) Timing-sequence response and specificity C2,Balb/c mice; [6],1244
same,3) Timing-sequence response and specificity C3,Balb/c mice; [6],0
same,3) Timing-sequence response and specificity C4,Balb/c mice; [6],0.000
same,Total single peptide,Balb/c mice; [6],17.8
same,1) 95 percentile grouping number A,Balb/c mice; [7],1.5
same,1) 95 percentile grouping number A1,Balb/c mice; [7],0.025
same,2) Mouse performance B,Balb/c mice; [7],2.4
same,2) Mouse performance B1,Balb/c mice; [7],4
same,2) Mouse performance B2,Balb/c mice; [7],2
same,2) Mouse performance B3,Balb/c mice; [7],2
same,3) Timing-sequence response and specificity C,Balb/c mice; [7],1
same,3) Timing-sequence response and specificity C1,Balb/c mice; [7],123
same,3) Timing-sequence response and specificity C2,Balb/c mice; [7],1244
same,3) Timing-sequence response and specificity C3,Balb/c mice; [7],2
same,3) Timing-sequence response and specificity C4,Balb/c mice; [7],0.161
same,Total single peptide,Balb/c mice; [7],9.8
same,1) 95 percentile grouping number A,Balb/c mice; [8],2
same,1) 95 percentile grouping number A1,Balb/c mice; [8],0.025
same,2) Mouse performance B,Balb/c mice; [8],2.4
same,2) Mouse performance B1,Balb/c mice; [8],0
same,2) Mouse performance B2,Balb/c mice; [8],4
same,2) Mouse performance B3,Balb/c mice; [8],4
same,3) Timing-sequence response and specificity C,Balb/c mice; [8],1
same,3) Timing-sequence response and specificity C1,Balb/c mice; [8],100
same,3) Timing-sequence response and specificity C2,Balb/c mice; [8],1244
same,3) Timing-sequence response and specificity C3,Balb/c mice; [8],3
same,3) Timing-sequence response and specificity C4,Balb/c mice; [8],0.241
same,Total single peptide,Balb/c mice; [8],11.3
same,1) 95 percentile grouping number A,Balb/c mice; [9],3
same,1) 95 percentile grouping number A1,Balb/c mice; [9],0.042
same,2) Mouse performance B,Balb/c mice; [9],2.6
same,2) Mouse performance B1,Balb/c mice; [9],4
same,2) Mouse performance B2,Balb/c mice; [9],3
same,2) Mouse performance B3,Balb/c mice; [9],2
same,3) Timing-sequence response and specificity C,Balb/c mice; [9],1
same,3) Timing-sequence response and specificity C1,Balb/c mice; [9],260
same,3) Timing-sequence response and specificity C2,Balb/c mice; [9],1244
same,3) Timing-sequence response and specificity C3,Balb/c mice; [9],3
same,3) Timing-sequence response and specificity C4,Balb/c mice; [9],0.241
same,Total single peptide,Balb/c mice; [9],14.7
same,1) 95 percentile grouping number A,Balb/c mice; [10],2.5
same,1) 95 percentile grouping number A1,Balb/c mice; [10],0.035
same,2) Mouse performance B,Balb/c mice; [10],2
same,2) Mouse performance B1,Balb/c mice; [10],4
same,2) Mouse performance B2,Balb/c mice; [10],2
same,2) Mouse performance B3,Balb/c mice; [10],1
same,3) Timing-sequence response and specificity C,Balb/c mice; [10],0
same,3) Timing-sequence response and specificity C1,Balb/c mice; [10],153
same,3) Timing-sequence response and specificity C2,Balb/c mice; [10],1244
same,3) Timing-sequence response and specificity C3,Balb/c mice; [10],0
same,3) Timing-sequence response and specificity C4,Balb/c mice; [10],0.000
same,Total single peptide,Balb/c mice; [10],11.5
same,Neutralizing antibody positive rate (%),[1],40%
VYDPLQPEL (SARS-CoV-2) [SEQ ID NO:34],A2: whether the 95 percentile of the last sampling is increased compared with the end point,"Balb/c mice; Embodiment II, Combination 1",N
same,B1: D 0-D 14 95 percentile rise in the number of mice,"Balb/c mice; Embodiment II, Combination 1",5
same,B2: D 0-D 21 95 percentile rise in the number of mice,"Balb/c mice; Embodiment II, Combination 1",0
same,B3: D 14-D 21 95 percentile rise in the number of mice,"Balb/c mice; Embodiment II, Combination 1",0
same,B4: D 21-D 28 95 percentile rise in the number of mice,"Balb/c mice; Embodiment II, Combination 1",1
same,Total single peptide,"Balb/c mice; Embodiment II, Combination 1, A*3 + B*2 + C*1",18.9
same,A: 95 percentile grouping number score,"Balb/c mice; Embodiment II, Combination 1",5
same,B: Mouse performance score,"Balb/c mice; Embodiment II, Combination 1",1.7
same,A1: difference between a highest median and a D 0 median (95 percentile),"Balb/c mice; Embodiment II, mice immunized with Combination 1",0.21
same,B1: D 0-D 14 95 percentile rise in the number of mice,Balb/c mice; [2],3
same,B2: D 0-D 21 95 percentile rise in the number of mice,Balb/c mice; [2],3
same,B3: D 14-D 21 95 percentile rise in the number of mice,Balb/c mice; [2],1
same,B4: D 21-D 28 95 percentile rise in the number of mice,Balb/c mice; [2],0
same,A1: difference between a highest median and a D 0 median (95 percentile),Balb/c mice; [3],0.08
same,A2: whether the 95 percentile of the last sampling is increased compared with the end point,Balb/c mice; [3],N
same,Total single peptide,Balb/c mice; [4],13.4
same,A: 95 percentile grouping number score,Balb/c mice; [2],3
same,B: Mouse performance score,Balb/c mice; [2],1.7
same,C1: #A timing-sequence response peptide fragment set,Balb/c mice; [2],823
same,C2: #B vaccine specificity peptide fragment set,Balb/c mice; [2],398
same,C3: Intersection of A and B,Balb/c mice; [2],7
same,C4: Percentage of the intersection in set B,Balb/c mice; [2],1.759
same,C: Timing-sequence response and specificity score,Balb/c mice; [2],1
same,1) 95 percentile grouping number A,Balb/c mice; [5],3.5
same,1) 95 percentile grouping number A1,Balb/c mice; [5],0.05
same,2) Mouse performance B,Balb/c mice; [5],2.4
same,2) Mouse performance B1,Balb/c mice; [5],4
same,2) Mouse performance B2,Balb/c mice; [5],4
same,2) Mouse performance B3,Balb/c mice; [5],1
same,3) Timing-sequence response and specificity C,Balb/c mice; [5],0
same,3) Timing-sequence response and specificity C1,Balb/c mice; [5],237
same,3) Timing-sequence response and specificity C2,Balb/c mice; [5],1244
same,3) Timing-sequence response and specificity C3,Balb/c mice; [5],0
same,3) Timing-sequence response and specificity C4,Balb/c mice; [5],0.000
same,Total single peptide,Balb/c mice; [5],15.3
same,1) 95 percentile grouping number A,Balb/c mice; [6],5
same,1) 95 percentile grouping number A1,Balb/c mice; [6],0.08
same,2) Mouse performance B,Balb/c mice; [6],2.5
same,2) Mouse performance B1,Balb/c mice; [6],3
same,2) Mouse performance B2,Balb/c mice; [6],4
same,2) Mouse performance B3,Balb/c mice; [6],2
same,3) Timing-sequence response and specificity C,Balb/c mice; [6],0
same,3) Timing-sequence response and specificity C1,Balb/c mice; [6],203
same,3) Timing-sequence response and specificity C2,Balb/c mice; [6],1244
same,3) Timing-sequence response and specificity C3,Balb/c mice; [6],0
same,3) Timing-sequence response and specificity C4,Balb/c mice; [6],0.000
same,Total single peptide,Balb/c mice; [6],20
same,1) 95 percentile grouping number A,Balb/c mice; [7],5
same,1) 95 percentile grouping number A1,Balb/c mice; [7],0.06
same,2) Mouse performance B,Balb/c mice; [7],2.6
same,2) Mouse performance B1,Balb/c mice; [7],4
same,2) Mouse performance B2,Balb/c mice; [7],3
same,2) Mouse performance B3,Balb/c mice; [7],2
same,3) Timing-sequence response and specificity C,Balb/c mice; [7],1
same,3) Timing-sequence response and specificity C1,Balb/c mice; [7],123
same,3) Timing-sequence response and specificity C2,Balb/c mice; [7],1244
same,3) Timing-sequence response and specificity C3,Balb/c mice; [7],2
same,3) Timing-sequence response and specificity C4,Balb/c mice; [7],0.161
same,Total single peptide,Balb/c mice; [7],20.7
same,1) 95 percentile grouping number A,Balb/c mice; [8],5
same,1) 95 percentile grouping number A1,Balb/c mice; [8],0.11
same,2) Mouse performance B,Balb/c mice; [8],2.1
same,2) Mouse performance B1,Balb/c mice; [8],5
same,2) Mouse performance B2,Balb/c mice; [8],3
same,2) Mouse performance B3,Balb/c mice; [8],0
same,3) Timing-sequence response and specificity C,Balb/c mice; [8],1
same,3) Timing-sequence response and specificity C1,Balb/c mice; [8],100
same,3) Timing-sequence response and specificity C2,Balb/c mice; [8],1244
same,3) Timing-sequence response and specificity C3,Balb/c mice; [8],3
same,3) Timing-sequence response and specificity C4,Balb/c mice; [8],0.241
same,Total single peptide,Balb/c mice; [8],19.7
same,1) 95 percentile grouping number A,Balb/c mice; [9],5
same,1) 95 percentile grouping number A1,Balb/c mice; [9],0.115
same,2) Mouse performance B,Balb/c mice; [9],2.5
same,2) Mouse performance B1,Balb/c mice; [9],5
same,2) Mouse performance B2,Balb/c mice; [9],5
same,2) Mouse performance B3,Balb/c mice; [9],0
same,3) Timing-sequence response and specificity C,Balb/c mice; [9],1
same,3) Timing-sequence response and specificity C1,Balb/c mice; [9],260
same,3) Timing-sequence response and specificity C2,Balb/c mice; [9],1244
same,3) Timing-sequence response and specificity C3,Balb/c mice; [9],3
same,3) Timing-sequence response and specificity C4,Balb/c mice; [9],0.241
same,Total single peptide,Balb/c mice; [9],20.5
same,1) 95 percentile grouping number A,Balb/c mice; [10],5
same,1) 95 percentile grouping number A1,Balb/c mice; [10],0.095
same,2) Mouse performance B,Balb/c mice; [10],4.2
same,2) Mouse performance B1,Balb/c mice; [10],4
same,2) Mouse performance B2,Balb/c mice; [10],5
same,2) Mouse performance B3,Balb/c mice; [10],5
same,3) Timing-sequence response and specificity C,Balb/c mice; [10],0
same,3) Timing-sequence response and specificity C1,Balb/c mice; [10],153
same,3) Timing-sequence response and specificity C2,Balb/c mice; [10],1244
same,3) Timing-sequence response and specificity C3,Balb/c mice; [10],0
same,3) Timing-sequence response and specificity C4,Balb/c mice; [10],0.000
same,Total single peptide,Balb/c mice; [10],23.4
same,Neutralizing antibody positive rate (%),[1],20%
